Data on 11 compounds can be found in US9085550B2, “Ligands for estrogen related receptors and methods for synthesis of said ligands” (CITY OF HOPE, priority 2005, dated 2015).

Data set [1] concerns the target T1, GAL-mERRg (mouse ERRγ ligand binding domain fused to GAL4 DNA binding domain) (Mus musculus, UniProt P62509).
T1 construct: expressed in transfected cells; host or cells: CV-1
T1 sequence (P62509 233-457 limits assumed): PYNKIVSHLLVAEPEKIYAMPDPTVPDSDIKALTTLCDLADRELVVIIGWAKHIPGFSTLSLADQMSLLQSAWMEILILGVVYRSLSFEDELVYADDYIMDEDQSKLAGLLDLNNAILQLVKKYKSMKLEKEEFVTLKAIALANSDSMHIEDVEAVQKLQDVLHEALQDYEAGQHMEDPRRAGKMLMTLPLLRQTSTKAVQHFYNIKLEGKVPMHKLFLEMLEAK
Put plainly: GAL4 reporter transactivation assay in CV-1 cells, GAL-mERRg. The class given is cell-based.

The target of another data set is T2, human ERα (Homo sapiens, UniProt P03372).
T2 construct: Human ERα and ERβ were examined as full-length proteins using an estrogen receptor responsive reporter construct; expressed in transfected cells; host or cells: CV-1
T2 sequence (P03372 1-595): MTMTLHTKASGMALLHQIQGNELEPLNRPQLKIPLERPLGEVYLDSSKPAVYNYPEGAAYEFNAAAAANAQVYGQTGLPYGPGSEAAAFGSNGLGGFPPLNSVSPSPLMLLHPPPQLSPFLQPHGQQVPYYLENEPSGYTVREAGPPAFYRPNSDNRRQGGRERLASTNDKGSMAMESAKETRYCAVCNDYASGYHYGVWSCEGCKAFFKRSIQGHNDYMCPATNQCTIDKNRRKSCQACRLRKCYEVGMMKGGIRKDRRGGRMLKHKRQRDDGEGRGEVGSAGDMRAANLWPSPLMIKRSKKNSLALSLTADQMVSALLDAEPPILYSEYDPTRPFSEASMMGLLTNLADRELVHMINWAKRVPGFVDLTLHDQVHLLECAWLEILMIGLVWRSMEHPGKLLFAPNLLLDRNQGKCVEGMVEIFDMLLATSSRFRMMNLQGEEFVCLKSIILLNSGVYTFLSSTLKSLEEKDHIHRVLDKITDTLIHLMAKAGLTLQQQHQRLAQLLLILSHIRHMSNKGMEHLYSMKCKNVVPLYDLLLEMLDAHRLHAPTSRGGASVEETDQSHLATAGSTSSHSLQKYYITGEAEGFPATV
Kind of data set: ERE-TK-luc reporter transactivation assay in CV-1 cells, full-length hERa. The class given is cell-based. On the procedure: (§1) Human ERα and ERβ were examined as full-length proteins using an estrogen receptor responsive reporter construct.
(§2) Suitable reporter gene constructs are well known to skilled workers in the fields of biochemistry and molecular biology. […] Other vectors known in the art can be used in the methods of the present invention.
(§3) CV-1 cells for the activation assays were grown in Dulbecco's modified Eagle's medium supplemented with 10% resin charcoal-stripped fetal bovine serum, 50 U/ml penicillin G and 50 μg/ml streptomycin sulfate (DMEM-FBS) at 37° C. in 5% CO2. One day prior to transfection, cells were plated to 50-80% confluence using phenol red free DMEM-FBS.

Data set [2] addresses T3, GAL-hERRa (human ERRα ligand binding domain fused to GAL4 DNA binding domain) (Homo sapiens, UniProt P11474).
T3 construct: expressed in transfected cells; host or cells: CV-1
T3 sequence (P11474 193-421 limits assumed): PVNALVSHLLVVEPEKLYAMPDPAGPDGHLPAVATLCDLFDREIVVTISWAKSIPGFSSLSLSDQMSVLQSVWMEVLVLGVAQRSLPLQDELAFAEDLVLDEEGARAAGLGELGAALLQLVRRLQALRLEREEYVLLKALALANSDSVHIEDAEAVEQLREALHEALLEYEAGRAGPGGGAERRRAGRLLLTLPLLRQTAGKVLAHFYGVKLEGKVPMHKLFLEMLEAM
Kind of data set: GAL4 reporter transactivation assay in CV-1 cells, GAL-hERRa. It counts as cell-based.

A further data set addresses T4, human ERβ (Homo sapiens, UniProt Q92731).
T4 construct: Human ERα and ERβ were examined as full-length proteins using an estrogen receptor responsive reporter construct; expressed in transfected cells; host or cells: CV-1
Kind of data set: ERE-TK-luc reporter transactivation assay in CV-1 cells, full-length hERb. It counts as cell-based. How it is done:
as §1, §2, §3

For data set [3], the target named is T5, GAL-L-hERRb (human ERRβ ligand binding domain fused to GAL4 DNA binding domain) (Homo sapiens, UniProt O95718).
T5 construct: expressed in transfected cells; host or cells: CV-1
T5 sequence (O95718 208-432 limits assumed): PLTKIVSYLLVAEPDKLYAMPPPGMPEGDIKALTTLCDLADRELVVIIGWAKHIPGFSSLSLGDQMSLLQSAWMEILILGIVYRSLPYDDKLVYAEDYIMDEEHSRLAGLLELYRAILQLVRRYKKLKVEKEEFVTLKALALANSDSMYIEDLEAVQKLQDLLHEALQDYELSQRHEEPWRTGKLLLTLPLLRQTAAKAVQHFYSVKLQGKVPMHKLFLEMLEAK
Put plainly: GAL4 reporter transactivation assay in CV-1 cells, GAL-L-hERRb. The class given is cell-based.

Data set [4] deals with T6, HRHN-GAL (yeast GAL4 DNA binding domain without receptor sequences) (Saccharomyces cerevisiae, UniProt P04386).
T6 construct: expressed in transfected cells; host or cells: CV-1
Kind of data set: GAL4 reporter transactivation assay in CV-1 cells, control vector without receptor. It counts as cell-based, monkey.

The target of the next data set is T7, ERRγ (Homo sapiens, UniProt P62508).
T7 sequence (P62508 1-458): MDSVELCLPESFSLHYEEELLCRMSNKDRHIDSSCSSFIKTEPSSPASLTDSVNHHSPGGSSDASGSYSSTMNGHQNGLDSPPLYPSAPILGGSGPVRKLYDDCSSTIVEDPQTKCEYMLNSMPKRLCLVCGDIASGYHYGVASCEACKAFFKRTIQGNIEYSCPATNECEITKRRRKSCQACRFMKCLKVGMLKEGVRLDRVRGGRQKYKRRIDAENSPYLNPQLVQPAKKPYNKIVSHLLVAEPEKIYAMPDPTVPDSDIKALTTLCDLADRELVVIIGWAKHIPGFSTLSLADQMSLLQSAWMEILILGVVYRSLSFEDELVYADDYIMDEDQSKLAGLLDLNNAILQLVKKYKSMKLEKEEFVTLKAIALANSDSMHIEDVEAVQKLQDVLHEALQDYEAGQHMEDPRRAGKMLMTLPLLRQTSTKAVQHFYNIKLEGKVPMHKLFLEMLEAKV
The settings on record: background statement; cited from earlier work.

Setting [5] is: CV-1, reporter 0.42:vector 0.00875:PGC-1a 0.035, 30 μM.
Where [6] appears, read: CV-1, reporter 0.42:vector 0.00875, no PGC-1a, 30 μM.

T4 sequence (Q92731 whole entry): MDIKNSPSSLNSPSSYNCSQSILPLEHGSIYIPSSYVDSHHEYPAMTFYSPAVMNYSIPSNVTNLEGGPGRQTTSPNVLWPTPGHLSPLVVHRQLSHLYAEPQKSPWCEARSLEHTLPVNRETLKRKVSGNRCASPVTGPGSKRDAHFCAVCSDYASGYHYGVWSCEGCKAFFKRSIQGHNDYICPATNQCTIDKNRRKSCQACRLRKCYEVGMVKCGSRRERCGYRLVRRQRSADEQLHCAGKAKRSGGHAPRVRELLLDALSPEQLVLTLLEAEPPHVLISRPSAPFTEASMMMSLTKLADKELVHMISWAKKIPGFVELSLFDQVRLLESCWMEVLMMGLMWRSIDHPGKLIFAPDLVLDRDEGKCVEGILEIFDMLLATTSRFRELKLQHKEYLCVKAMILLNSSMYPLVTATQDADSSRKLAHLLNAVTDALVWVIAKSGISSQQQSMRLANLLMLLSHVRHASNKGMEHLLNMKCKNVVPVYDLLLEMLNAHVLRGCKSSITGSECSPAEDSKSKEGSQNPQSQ
T6 sequence (P04386 1-147): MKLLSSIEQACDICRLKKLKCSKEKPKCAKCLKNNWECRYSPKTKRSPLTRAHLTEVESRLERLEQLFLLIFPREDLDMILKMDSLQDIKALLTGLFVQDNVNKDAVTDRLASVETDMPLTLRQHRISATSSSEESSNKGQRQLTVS

By melting point is commonly meant the temperature of the solid-liquid transition. For the compound `O=C(NN=Cc1ccc(C(F)(F)F)c([N+](=O)[O-])c1)c1ccc(O)cc1` [DY170, 4-Hydroxy-benzoic acid (3-nitro-4-trifluoromethyl-benzylidene)-hydrazide], the melting point turned out to be 279.6 °C.
On the same count and under the same terms, the result for `O=C(NN=Cc1cccc(C(F)(F)F)c1Cl)c1ccc(O)cc1` [DY165, 4-Hydroxy-benzoic acid (2-chloro-3-trifluoromethyl-benzylidene)-hydrazide] reads 261.5 °C; that for `Oc1nc(Cl)nc(NN=Cc2cc(C(F)(F)F)cc(C(F)(F)F)c2)n1` [DY176, 4-[N′-(3,5-Bis-trifluoromethyl-benzylidene)-hydrazino]-6-chloro-[1,3,5]triazin-2-ol], 258.3 °C; that for `Cc1[nH]c(C=NNC(=O)c2ccc(O)cc2)c(C)c1Br` [DY172, 4-Hydroxy-benzoic acid (4-bromo-3,5-dimethyl-1H-pyrrol-2-ylmethylene)-hydrazide], 235.4 °C.
`CCc1ccc(C=NNC(=O)c2ccc(O)cc2)s1` [DY164, 4-Hydroxy-benzoic acid (5-ethyl-thiophen-2-ylmethylene)-hydrazide] yielded a melting point of 194.5 °C. The “Fold activation, GAL-mERRg + PGC-1a” value in data set [1] (setting [5]) is on record as 2.45 fold. Also, the “Fold activation, GAL-mERRg” value in data set [1] (setting [6]) was 2.10 fold. The “Activation of ERRγ” value in data set [1] (in the presence of PGC-1a) is given as “can activate”. Also, the “Fold Activation, ERE-TK-luc, hERa” value at human ERα (Table 7, CV-1, drug conc 30 μM) was found to be 1.30 fold. The “Activation of ERa” value at human ERα (specificity for ERRs) was “do not activate”. In data set [2] (setting [5]), the “Fold activation, GAL-hERRa + PGC-1a” value was found to be 2.75 fold. Further, the “Fold activation, GAL-hERRa” value in data set [2] (setting [6]) is given as 1.74 fold. Further, in data set [2] (in the presence of PGC-1a), the “Activation of ERRα” value is recorded as “can activate”. The “Fold Activation, ERE-TK-luc, hERb” value at human ERβ (Table 7, CV-1, drug conc 30 μM) amounted to 1.74 fold. For the same compound, the “Activation of ERb” value on human ERβ (specificity for ERRs) is on record as “do not activate”. Moreover, in data set [3] (setting [5]), the “Fold activation, GAL-L-hERRb + PGC-1a” value came to 2.34 fold. In data set [3] (setting [6]), the “Fold activation, GAL-L-hERRb” value is listed as 1.89 fold. In data set [3] (in the presence of PGC-1a), the “Activation of ERRβ” value is on record as “can activate”. Also, the “Fold activation, HRHN-GAL” value in data set [4] (reporter 0.42:vector 0.00875, no PGC-1a, 30 μM) was 1.46 fold. In addition, the “Fold activation, HRHN-GAL + PGC-1a” value in data set [4] (reporter 0.42:vector 0.00875:PGC-1a 0.035, 30 μM) is listed as 1.62 fold.
Compound `O=C(NN=Cc1ccc(C(F)(F)F)cc1)c1ccc(O)cc1` [DY168, 4-Hydroxy-benzoic acid (4-trifluoromethyl-benzylidene)-hydrazide] registered a melting point of 260.5 °C.
Consider `COc1cc(/C=C(\C#N)C(=O)Nc2nnc(C(F)(F)F)s2)ccc1OCc1ccc(C(F)(F)F)cc1C(F)(F)F` [XCT790], for which the “Activity on ERRγ” value at ERRγ was “no activity”.
In turn, `Cc1cc(C)c(C=NNC(=O)c2ccc(O)cc2)[nH]1` [DY171, 4-Hydroxy-benzoic acid (3,5-dimethyl-1H-pyrrol-2-ylmethylene)-hydrazide] came in with a melting point of 261.2 °C.
`Cc1cc(C=NNC(=O)c2ccc(O)cc2)oc1C` [DY173, 4-Hydroxy-benzoic acid (4,5-dimethyl-furan-2-ylmethylene)-hydrazide]: the melting point came out at 251.4 °C.
Still for that read-out and setting: to `Cc1ccc(C=NNC(=O)c2ccc(O)cc2)s1` [DY166, 4-Hydroxy-benzoic acid (5-methyl-thiophen-2-ylmethylene)-hydrazide] belongs 215.7 °C.
Still for that read-out and setting: the result for `CCc1ccc(C=NNC(=O)c2ccc(O)cc2)o1` [DY175, 4-Hydroxy-benzoic acid (5-ethyl-furan-2-ylmethylene)-hydrazide] reads 60.5 °C.
